Some test systems named below: HL-60; CCRF-CEM; HCT-15; UO-31; NCI-H23; SNB-19; SK-MEL-5; M14; K562; SK-OV-3; RPMI-8226; SK-MEL-28; U-251; OVCAR-8; MOLT-4; TK-10; IGROV-1; SW-620; KM12; UACC-257.
What all share (assay): inhibition of tumour cell growth, NCI panel, 48 h

Experimental findings from ChEMBL document CHEMBL1201862, “PubChem BioAssay data set” (2004) are described below.

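Protocol summary: plate cells (96-well), add compound at 5 concentrations, incubate 48 h, interpolate endpoints linearly. GI50 = concentration required for 50% inhibition of growth.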 Calls of active or inactive are those of the source. Cut-off read from the data, not from the text of the source: active = GI50 up to about 1.1 µM and inactive = higher.

Regarding `COc1ccc(N2C(=O)C3c4[nH]c5c(C)cccc5c4C4CCC(C(C)(C)C)CC4C3C2=O)cc1` (stereo not given), the GI50 was 3.3 µM (inactive) in the assay with HL-60; > 10 µM (inactive) in the assay on CCRF-CEM; > 10 µM in the assay with HCT-15; 2.72 µM (inactive) with UO-31; 4.19 µM (inactive) in the assay on NCI-H23; > 10 µM (inactive) in the assay with SNB-19. In addition, the GI50 in the assay on SK-MEL-5 was > 10 µM (inactive); in the assay with M14, > 10 µM (inactive); in the assay with K562, 4.51 µM (inactive); in the assay with SK-OV-3 it was > 10 µM (inactive); in the assay on RPMI-8226, 6 µM (inactive); in the assay with SK-MEL-28 it was > 10 µM (inactive). Also, the GI50 in the assay with U-251 was > 10 µM (inactive); with OVCAR-8, > 10 µM (inactive); with MOLT-4 it was 3.47 µM (inactive); in the assay with TK-10, 9.14 µM (inactive); in the assay with IGROV-1, > 10 µM (inactive); in the assay with SW-620, 6.62 µM (inactive). Moreover, in the assay on KM12, the GI50 is 5.13 µM (inactive).
With `O=[N+]([O-])c1ccccc1S(=O)(=O)c1ccccc1`, the GI50 in the assay on HL-60 was 31.2 µM (inactive); with CCRF-CEM it was > 100 µM (inactive); in the assay on HCT-15, > 100 µM; with UACC-257 it was > 100 µM (inactive); in the assay on UO-31, 28.2 µM (inactive); with NCI-H23, 89.7 µM (inactive). The GI50 in the assay with SK-MEL-5 is 81.7 µM (inactive); in the assay with M14 it was > 100 µM (inactive); in the assay on K562 it was > 100 µM (inactive); in the assay on SK-OV-3 it was > 100 µM (inactive); with RPMI-8226, > 100 µM (inactive); with SK-MEL-28, > 100 µM (inactive). Also, the GI50 in the assay with U-251, in the assay on OVCAR-8, in the assay on MOLT-4, in the assay on TK-10, with IGROV-1 and in the assay on SW-620 was > 100 µM (inactive) in each case. The GI50 in the assay with KM12 is > 100 µM (inactive).
Turning to `Cc1ccc(NC(=O)CC2Sc3ccccc3NC2=O)cc1C` (stereo not given), the GI50 was 24.5 µM (inactive) with HL-60; 18.7 µM (inactive) in the assay on CCRF-CEM; 85.7 µM in the assay on HCT-15; > 100 µM (inactive) with UACC-257; 73.6 µM (inactive) in the assay on UO-31; > 100 µM (inactive) with NCI-H23. For the same compound, the GI50 is > 100 µM (inactive) in the assay with SNB-19; 41.4 µM (inactive) in the assay on SK-MEL-5; > 100 µM (inactive) in the assay on M14; 28.2 µM (inactive) in the assay on K562; > 100 µM (inactive) in the assay on SK-OV-3; > 100 µM (inactive) in the assay on RPMI-8226. Besides, the GI50 in the assay on SK-MEL-28 is > 100 µM (inactive); in the assay with U-251, 79.6 µM (inactive); in the assay on OVCAR-8 it was 46.8 µM (inactive); with MOLT-4, 8.22 µM (inactive); in the assay with TK-10, > 100 µM (inactive); in the assay with IGROV-1 it was > 100 µM (inactive). The GI50 was > 100 µM (inactive) with SW-620 and 90.4 µM (inactive) in the assay with KM12.
As for `CN(C(=O)C1=CCC2(CC1)OCCO2)c1ccccc1I`, the GI50 in the assay on HL-60 is 96.6 µM (inactive); with CCRF-CEM, > 100 µM (inactive); in the assay on HCT-15 it was > 100 µM; in the assay with UACC-257, > 100 µM (inactive); with UO-31, > 100 µM (inactive); in the assay on NCI-H23 it was > 100 µM (inactive). In addition, the GI50 with SNB-19, with SK-MEL-5, in the assay with M14, with K562, in the assay with SK-OV-3 and in the assay with RPMI-8226 was > 100 µM (inactive) throughout. Besides, the GI50 in the assay on SK-MEL-28, in the assay with U-251, in the assay with OVCAR-8, in the assay on MOLT-4, with TK-10 and in the assay with IGROV-1 was > 100 µM (inactive) throughout. In addition, the GI50 with SW-620 and with KM12 was > 100 µM (inactive) each time.
As for `C/C=C/CC(C)[C@@H](O)[C@H](NC)C(=O)O` (stereo not given in full), the GI50 in the assay on HL-60 was > 100 µM (inactive); in the assay on CCRF-CEM it was > 100 µM (inactive); with HCT-15, > 100 µM; in the assay on UACC-257 it was > 100 µM (inactive); with UO-31, > 100 µM (inactive); in the assay on NCI-H23 it was > 100 µM (inactive). Further, the GI50 in the assay on SNB-19, in the assay on SK-MEL-5, in the assay with M14, in the assay on K562, in the assay on SK-OV-3 and with RPMI-8226 was > 100 µM (inactive) in each case. The GI50 with SK-MEL-28, with U-251, in the assay with OVCAR-8, in the assay with MOLT-4, with TK-10 and in the assay with IGROV-1 was > 100 µM (inactive) throughout. The GI50 in the assay on SW-620 and in the assay on KM12 was > 100 µM (inactive) each time.
For the compound `COC(=O)CCC(=O)Nc1ccc(Cl)cc1C`, the GI50 in the assay on HL-60 is 0.399 µM (active); in the assay on CCRF-CEM, 0.123 µM (active); with HCT-15, > 100 µM; in the assay on UACC-257, > 67.1 µM (inactive); in the assay on NCI-H23, > 71 µM (inactive); in the assay on SNB-19 it was > 100 µM (inactive). The GI50 was > 92.9 µM (inactive) with SK-MEL-5; > 100 µM (inactive) in the assay on M14; 20.8 µM (inactive) in the assay with K562; > 100 µM (inactive) in the assay with SK-OV-3; 0.973 µM (active) in the assay on RPMI-8226; > 100 µM (inactive) in the assay with SK-MEL-28. The GI50 in the assay on U-251 was > 22.4 µM (inactive); in the assay on OVCAR-8 it was > 100 µM (inactive); in the assay on MOLT-4 it was 1.8 µM (inactive); in the assay with TK-10, > 100 µM (inactive); with IGROV-1 it was > 64 µM (inactive); in the assay with SW-620, > 100 µM (inactive). In addition, the GI50 in the assay on KM12 was 15.5 µM (inactive).
Consider `O=C(/C=C\c1ccc(/C=C/C(=O)Nc2cccc(C3=NCCCN3)c2)cc1)Nc1cccc(C2=NCCCN2)c1`, for which the GI50 with HL-60 is > 100 µM (inactive); in the assay with CCRF-CEM, > 100 µM (inactive); in the assay on HCT-15, > 100 µM; with UACC-257, > 100 µM (inactive); in the assay with UO-31, > 100 µM (inactive); in the assay on NCI-H23, > 100 µM (inactive). The GI50 is > 100 µM (inactive) in the assay on SNB-19; 30.8 µM (inactive) in the assay on SK-MEL-5; > 100 µM (inactive) in the assay with K562; > 100 µM (inactive) with SK-OV-3; 33.9 µM (inactive) in the assay with RPMI-8226; > 100 µM (inactive) with SK-MEL-28. In addition, the GI50 in the assay with U-251 is > 100 µM (inactive); with OVCAR-8, > 100 µM (inactive); with MOLT-4, > 100 µM (inactive); with IGROV-1, > 100 µM (inactive); with SW-620 it was 25.4 µM (inactive); with KM12, > 100 µM (inactive).
Consider `CC(=O)Nc1ccc2c3c(cc(O)c2c1)N(C(=O)CCCCCC(=O)Nc1ccc2c4c(cc(O)c2c1)N(C(=O)OC(C)(C)C)CC4CCl)CC3CCl` (stereo not given), for which the GI50 was 0.355 µM (active) in the assay with HL-60; 0.0995 µM (active) in the assay on CCRF-CEM; > 100 µM in the assay on HCT-15; 3.37 µM (inactive) with UACC-257; > 100 µM (inactive) in the assay on UO-31; 0.8 µM (active) with NCI-H23. The GI50 was 1.6 µM (inactive) with SNB-19; 1.33 µM (inactive) with SK-MEL-5; 4.09 µM (inactive) in the assay on M14; 3.3 µM (inactive) with K562; 3.54 µM (inactive) with SK-OV-3; 3.37 µM (inactive) in the assay on RPMI-8226. In addition, the GI50 in the assay on SK-MEL-28 was 6.28 µM (inactive); in the assay on U-251, 0.74 µM (active); in the assay on OVCAR-8, 2.35 µM (inactive); in the assay with MOLT-4, 0.0585 µM (active); in the assay on TK-10, 18 µM (inactive); with IGROV-1 it was 8.05 µM (inactive). Moreover, the GI50 with SW-620 is 2.17 µM (inactive); in the assay on KM12, 2.73 µM (inactive).
On to `CC1CC/C(=C\c2ccc(F)cc2)C(=O)/C1=C/c1ccc(F)cc1` (stereo not given), for which the GI50 in the assay on HL-60 is 3.08 µM (inactive); in the assay on CCRF-CEM it was 3.62 µM (inactive); in the assay on HCT-15, 2.34 µM; in the assay on UACC-257, 15.7 µM (inactive); in the assay with UO-31, 11.1 µM (inactive); with NCI-H23, 6.44 µM (inactive). Further, the GI50 with SNB-19 was 10.1 µM (inactive); in the assay with SK-MEL-5, 4.57 µM (inactive); in the assay with M14 it was 6.76 µM (inactive); in the assay with K562, 3.76 µM (inactive); in the assay on SK-OV-3, 17.4 µM (inactive); in the assay with RPMI-8226, 1.61 µM (inactive). The GI50 in the assay on SK-MEL-28 is 13.2 µM (inactive); with U-251 it was 4.95 µM (inactive); in the assay with OVCAR-8, 2.7 µM (inactive); in the assay on MOLT-4, 3.02 µM (inactive); in the assay on TK-10, 3.85 µM (inactive); in the assay on IGROV-1 it was 3.04 µM (inactive). The GI50 with SW-620 is 6.04 µM (inactive); with KM12 it was 2.97 µM (inactive).
